Reference: patent US20020076693A1, “Novel cell surface receptor for HIV retroviruses, therapeutic and diagnostic uses” (priority 1997, published 2002)
Several values for one entry are separate records, joined by “and”; a condition that tells them apart may be missing. Equal values may be shown once.

How the values were obtained:
[1] = system: V3 loop-BPs (nucleolin, PHAP II, PHAP I); experiment: BIAcore biosensor binding to immobilized V3 loop-BPs; parameters: species or system human; settings: for equilibrium affinity constant Ka: binding to the V3 loop-BPs; for Ka (equilibrium affinity constant) / ka (association rate constant) / kd (dissociation rate constant): binding protein(s) V3 loop-BPs, BIAcore
CD4 = CD4 (Homo sapiens, UniProt P01730); experiment: BIAcore biosensor binding to soluble CD4; settings: binding protein soluble recombinant CD4, BIAcore
V3 loop-BPs [2] = experiment: Inhibition of 5[Kψ(CH2N)PR]-TASP binding to the V3 loop-BPs (biosensor); parameters: species or system human; settings: read-out: IC50 for the inhibition of 5[Kψ(CH2N)PR]-TASP binding to the V3 loop-BPs, increasing concentrations of gp120 HIV-1 Lai
V3 loop-BPs [3] = experiment: ELISA binding of proteins to coated V3 loop-BPs; parameters: species or system human; settings: gp120 1 ng/ml, gp41 2 ng/ml, histone H3
Procedure: This is an ELISA-type experiment using the purified preparation of the V3 loop-BPs which was as described in FIG. 2 +L. The purified preparation of the V3 loop-BPs at different concentrations (12;5 to 200 ng/ml; abscissa) was coated to the plate before incubation with either gp120 (at 1 ng/ml; ), gp41 (at 2 ng/ml;), or histone H3 (1 μg/ml;). […] As a control mAb, we used mAb OKT4A specific for CD4. The abscissa gives the concentration of V3 loop-BPs in ng/ml. The ordinate gives the optical density (OD) values measured at 450 nm as an indicator of reactivity. An OD value less than 0.2 was considered as not significant. mAb OKT4A at 1 mg/ml gave an OD value of 0.20 when used in wells preincubated with either gp120, gp41, or histone H3. Rabbit antiserum against CXCR4 at dilutions as low as 1:200 generated an OD value of 0.15.
The resulting absorbance was measured at 450 nm.

HIV-1 Lai = experiment: HIV entry into HeLa P4 / P4-C5 cells (β-galactosidase activity), HIV-1 Lai; assay type: cell-based
VSV/HIV = assay type: cell-based
[4] = system: HIV-1 pseudotyped Mo-MLV virus; experiment: Infection of CEM cells by HIV-1 pseudotyped Mo-MLV virus (p24); settings: p24 at 48 hours p.i., AZT 5 μM, TASP 5 μM
Procedure: CEM cells (2×10^5) were infected with the HIV-1 pseudoryped Mo-MLV virus (Experimental procedure) at 95 ng of p24/ml, in the absence (histogram Control) or presence of different additions (as indicated). The infection was monitored by the production of p24, which was measured in the culture supernatant at 48 hours p.i. The mean±SD of duplicate samples is given. Treatment of cells with the different antibodies was as in FIG. 6 +L. For a control of infection, cells were pretreated with 5 μM AZT before infection.
Hela cells were cotransfected by electroporation with plasmids pNL4-3 defective in env gene (Borman et al., 1995) and pE4070A expressing amphotrope envelope glycoproteins of Mo-MLV (Battini et al., 1996). Electroporation (Schwartz et al., 1996) was performed at 200 V, 960 μF, using a 4 mm wide cuvettes in a BIO-Rad Gene Pulser. The pseudotyped virus was recovered from the culture supernatant after 48 hours of culturing.

HIV-1 Ada-M = HIV-1 Ada-M entry into HeLa P4-C5 cells (β-galactosidase); assay type: cell-based; settings: HeLa P4-C5, β-galactosidase at 48 hours
Procedure: HeLa cells (P4-C5) were treated (incubation at 37° C., 30 min) with AZT (5 μM), (α-CD4 mAb CBT4 (5 μg/ml) before infection with the different HIV isolates in order to obtain the background β-galactosidase activity compared to untreated cells (Control). During the same time, the different HIV isolates were treated (incubation at room temperature, 15 min) with 1, 5, and 10 μg/ml of heparin before addition to untreated cells. The b-galactosidase activity was assayed at 48 hours post-infection as a measure of HIV entry (3 +L7).

[5] = system: HIV-1 AZT resistant, Saquinavir resistant, Nevirapine resistant; experiment: Entry of HIV-1 isolates resistant to antiviral drugs into HeLa cells (β-galactosidase); assay type: cell-based; settings: heparin 5 mg/ml
Procedure: HIV entry and replication, results in the activation of the HIV LTR, leading to the expression of the lacZ gene. Therefore, at 24 and 48 hours post-infection, the β-galactosidase activity could be measured in cell extracts directly. Consequently, this latter technique could be used to monitor HIV entry into cells. The HIV dose used corresponded to the amount of virus containing 20-40 ng/ml of p24.
In these experiments, the background values of the β-galactosidase activity were assesed by the samples incubated with the a-CD4 mAb. Furthermore, the effect of heparin (5 mg/ml) was investigated.

HIV-1 Bal = experiment: HIV entry into HeLa P4-C5 cells (β-galactosidase), HIV-1 Ba-L; assay type: cell-based; settings: HIV-1 Ba-L; heparin; mAb a-V3 5 μg/ml
SIVmac = SIVmac entry into HeLa cells (β-galactosidase); assay type: cell-based, SIV; settings: β-galactosidase at 48 hours
HIV-2 ROD = experiment: HIV entry into HeLa P4-C5 cells (β-galactosidase), HIV-2 ROD; assay type: cell-based; settings: heparin 1, 5, 10 μg/ml
HIV-1 JRCSF = experiment: HIV entry into HeLa P4-C5 cells (β-galactosidase), HIV-1 JRCSF; assay type: cell-based; settings: HIV-1 JRCSF; heparin 1, 5, 10 μg/ml

| Compound | equilibrium affinity constant Ka [1] [M⁻¹] | Ka (equilibrium affinity constant) [1] [M⁻¹] | ka (association rate constant) [1] | kd (dissociation rate constant) [1] | Ka (equilibrium affinity constant) (CD4) [M⁻¹] | ka (association rate constant) (CD4) | kd (dissociation rate constant) (CD4) | further results |
| --- | --- | --- | --- | --- | --- | --- | --- | --- |
| NCTRPNNNRKSIRIQRGPGRAFVTIGKIGNMRQAHCNIS [V3 loop-Lai, synthetic V3 loop peptide of T-cell tropic HIV-1 Lai] | 5.1e+06 | – | – | – | – | – | – | – |
| gp120 HIV-1 SF2 2/3: nonglycosylated form of gp120 of HIV-1 SF2 (Env 2-3) | 1.6e+08 | 1.6e+08 | 3.80 × 10^5 M^−1S^−1 | 2.40 × 10^−3 S^−1 | – | – | – | – |
| gp120 HIV-1 MN: recombinant gp120 of HIV-1 MN | 4.3e+08 | 4.3e+08 | 1.90 × 10^5 M^−1S^−1 | 0.44 × 10^−3 S^−1 | 7.7e+08 | 2.98 × 10^5 M^−1S^−1 | 38.60 × 10^−3 S^−1 | – |
| gp120 HIV-1 Lai: recombinant external envelope glycoprotein of HIV-1 Lai | 2.1e+08 | 2.1e+08 | 4.40 × 10^5 M^−1S^−1 | 2.10 × 10^−3 S^−1 | 1.08e+09 | 5.88 × 10^5 M^−1S^−1 | 54.50 × 10^−3 S^−1 | IC50 (V3 loop-BPs [2]): ~3 nM; binding to the purified V3 loop-BPs in ELISA (V3 loop-BPs [3]): bind in a dose-dependent manner |
| Cc1cn([C@H]2C[C@H](N=[N+]=[N-])[C@@H](CO)O2)c(=O)[nH]c1=O [AZT, reference compound] | – | – | – | – | – | – | – | inhibition of HIV infection monitored by the production of p24 (HIV-1 Lai; AZT 5 μM): more than 99%; effect on VSV-HIV pseudotyped virus entry and replication (VSV/HIV): inhibited; effect on infection by HIV-1 pseudotyped Mo-MLV virus [4]: inhibited |
| gp120 HIV-1 SF2: recombinant gp120 of HIV-1 SF2 produced in CHO cells | 2.3e+09 | 2.32e+09 | 0.65 × 10^5 M^−1S^−1 | 0.028 × 10^−3 S^−1 and 0.03 × 10^−3 S^−1 | 2.1e+08 | 11.50 × 10^5 M^−1S^−1 | 5.60 × 10^−3 S^−1 | – |
| NCTRPNNNTRKSIHIGPGRAFYTGEIIGDIRQAHCNLS [V3 loop-Ba-L, synthetic V3 loop peptide of macrophage-tropic HIV-1 Ba-L] | 1.5e+06 | – | – | – | – | – | – | – |
| Heparin [reference compound] | – | – | – | – | – | – | – | effect on HIV-1 Ada-M entry (HIV-1 Ada-M): inhibits; effect on entry of drug-resistant HIV-1 isolates [5]: drastically inhibited; effect on viral entry (β-galactosidase activity at 48 hours post-infection) (HIV-1 Bal): no significant effect; effect on SIVmac entry (SIVmac): inhibits; effect on viral entry (β-galactosidase activity at 48 hours post-infection) (HIV-1 Lai; HIV-1 LAI, heparin 1, 5, 10 μg/ml, mAb a-V3 5 μg/ml): inhibits; effect on viral entry (β-galactosidase activity at 48 hours post-infection) (HIV-2 ROD): inhibits; effect on viral entry (β-galactosidase activity at 48 hours post-infection) (HIV-1 JRCSF): no significant effect |
